Results: article PMC8691714 (Cancer Research Communications, 2021)
Marks after values point to notes of the source that are not given here.

Columns and labels:
[1] = In vivo pharmacokinetic study in mice, intravenous ibrutinib (plasma); details: female wild-type FVB mice, ibrutinib 1 mg/kg IV; for PCI-45227 AUC(0-last) / PCI-45227 Cmax: mean (SD)
Method: (§1) Experiments were performed with male and female mice from inbred wild-type strains (FVB, C57BL/6, DBA) or with age- and sex-matched genetically engineered mice with a deficiency of the Cyp3a locus [(8 genes; FVB.129P2-Cyp3a13^tm1Ahs Del (5Cyp3a57-Cyp3a59)1Ahs); ref. [16]; CYP3A^−/−], a deficiency of the intestinal transporter OATP2B1 (ref. [17]; OATP2B1 ^−/−), or the hepatic transporter OATP1B2 (ref. [18]; OATP1B2 ^−/−). […] The studies were approved by the University Laboratory Animal Resources Animal Care and Use Committee at The Ohio State University (Columbus, OH). […] For in vivo studies, drugs were prepared in standard vehicles ([19, 20]). Details regarding the preparation of drugs are provided in the Supplementary Methods.
(§2) Pharmacokinetic studies were performed as described previously ([21]). Further details are provided in the Supplementary Methods.
(§3) The lower limit of quantification was 5 ng/mL, using 5-μL sample volumes. Details regarding the analytic method are provided in the Supplementary Methods.
(§4) Ketoconazole was prepared for oral administration as a 10-mg/mL suspension in PEG400, and cobicistat as a 6-mg/mL suspension in corn oil.
(§5) Pharmacokinetic studies were performed as previously described.

[2] = design: method as in earlier work; details: PBPK model parameter, ref [17, 18] and Drugbank, cited from earlier work
[3] = design: method as in earlier work; details: PBPK model parameter, ref [17, 18] and Drugbank, cited from earlier work; remark: listed apart in the source
[4] = population PK model estimate, mice
[5] = In vivo pharmacokinetic study in mice, oral ibrutinib (plasma, LC-MS/MS)
Method: as §1, §2, §3, §4, §5
The analytical equipment consisted of a Vanquish UHPLC system, a TSQ Quantum Ultra triple quadrupole mass spectrometer from Thermo Fisher Scientific, and Thermo Trace Finder General Quan system software (version 3.3). An Accucore Vanquish C18 column (100 × 2.1 mm, dp = 1.5 μm; Thermo Fisher Scientific) was protected by a corresponding XBridgeBEH C18, 5-μm guard column. The injection volume of sample was 5.0 μL. The temperature of the autosampler rack was 4 °C, and the temperature of the column was 40 °C. Mobile phase A consisted of water with 0.1% (v/v) formic acid and mobile phase B consisted of acetonitrile: methanol (1:3) with 0.1% (v/v) formic acid. The total run time was 5 min. The mobile phase was delivered at a flow rate of 0.4 mL/min, and the optimized gradient contained time-varying amounts of mobile phase B, as follows: 0-0.5 min, 10% B; 0.5-1.5 min, 95% B; 1.5-2.9 min, 95% B; 2.9-3.0 min, 10% B; and 3.0-5.0 min, 10% B. The mass spectrometric assay settings included a positive voltage applied to the ESI capillary of 3500 V, a capillary temperature of 342 °C, and a vaporizer temperature of 358 °C. Argon was used a collision gas at a pressure of 1.5 mTorr. […] For sample extraction by protein precipitation, 5 µL of plasma, 5 µL of microsomal suspension, or 10 µL of homogenized tissue were added to a tube containing 60 µL of internal standard solution and 20 µL of methanol. Samples were then vortex-mixed, centrifuged at 13,000 rpm for 9.5 min, and supernatants collected and stored frozen until analysis. […] The lower limit of quantification was 5 ng/mL, using 5-µL sample volumes.

[6] = female CYP3A-/- mice, ibrutinib 10 mg/kg oral, no cotreatment, mean (SE)
[7] = female OATP1B2(-/-) mice, ibrutinib 10 mg/kg PO, no co-treatment, mean (SD)
[8] = female OATP2B1(-/-) mice, ibrutinib 10 mg/kg PO, no co-treatment, mean (SD)
[9] = female wild-type C57BL/6 mice, ibrutinib 10 mg/kg PO, no co-treatment, mean (SD)
[10] = female wild-type DBA mice, ibrutinib 10 mg/kg PO, no co-treatment, mean (SD)
[11] = female wild-type FVB mice, ibrutinib 4 mg/kg oral, cotreatment cobicistat 30 mg/kg, mean (SE)
[12] = female wild-type FVB mice, ibrutinib 10 mg/kg oral single dose, cotreatment cobicistat 30 mg/kg, mean (SE)
[13] = female wild-type FVB mice, ibrutinib 10 mg/kg oral single dose, cotreatment corn oil, mean (SE)
[14] = female wild-type FVB mice, ibrutinib 10 mg/kg oral, cotreatment PEG400, mean (SE)
[15] = female wild-type FVB mice, ibrutinib 10 mg/kg oral, cotreatment cobicistat 30 mg/kg, steady-state, mean (SE)
[16] = female wild-type FVB mice, ibrutinib 10 mg/kg oral, cotreatment corn oil, steady-state, mean (SE)
[17] = female wild-type FVB mice, ibrutinib 10 mg/kg oral, cotreatment ketoconazole 50 mg/kg, mean (SE)
[18] = female wild-type FVB mice, ibrutinib 10 mg/kg oral, no cotreatment, mean (SE)
[19] = female wild-type FVB mice, ibrutinib 30 mg/kg oral, no cotreatment, mean (SE)
[20] = male OATP2B1(-/-) mice, ibrutinib 10 mg/kg PO, no co-treatment, mean (SD)
[21] = male wild-type C57BL/6 mice, ibrutinib 10 mg/kg PO, no co-treatment, mean (SD)
[22] = male wild-type FVB mice, ibrutinib 10 mg/kg PO, co-treatment No Vehicle (cobicistat experiment), mean (SD)
[23] = male wild-type FVB mice, ibrutinib 10 mg/kg PO, co-treatment None (ketoconazole experiment), mean (SD)
[24] = male wild-type FVB mice, ibrutinib 10 mg/kg PO, co-treatment PEG400, mean (SD)
[25] = male wild-type FVB mice, ibrutinib 10 mg/kg PO, co-treatment cobicistat, mean (SD)
[26] = male wild-type FVB mice, ibrutinib 10 mg/kg PO, co-treatment corn oil, mean (SD)
[27] = male wild-type FVB mice, ibrutinib 10 mg/kg PO, co-treatment ketoconazole, mean (SD)

**Q.** What does the source list for Nc1ncnc2c1c(-c1ccc(Oc3ccccc3)cc1)nn2[C@@H]1CCCN(C(=O)C(O)CO)C1 (some centres unmarked) [PCI-45227]?
**A.** PCI-45227: Parent AUC Ratio ([1]; co-treatment cobicistat): 0.04; PCI-45227 AUC(0-last) ([1]; co-treatment cobicistat): 38 (27) ng*hr/mL; PCI-45227 Cmax ([1]; co-treatment cobicistat): 25 (11) ng/mL; PCI-45227 AUC(0-last) ([1]; co-treatment corn oil): 311 (15) ng*hr/mL; PCI-45227 Cmax ([1]; co-treatment corn oil): 197 (5) ng/mL; pKa ([2]; acid dissociation constant): 4.06; Log Po:w ([2]; octanol/water partition coefficient): 2.21; B/P ratio ([3]; blood to plasma ratio): 0.790; fu, plasma ([3]; unbound drug in the plasma): 0.056; IIV CLm ([4]; inter-individual variability): 0.0242; IIV Vm ([4]; inter-individual variability): 1.38; Fmet (metabolism of PCI-45227) [4]: 0.0216; Vm (volume of distribution for the central compartment of PCI-45227) [4]: 0.0578; RV PCI ([4]; residual variability): 0.730; levels of PCI-45227 ([5]; CYP3A-/- mice, oral ibrutinib): almost undetectable levels; PCI-45227: Ibrutinib AUC ratio ([5]; female CYP3A-/- mice, ibrutinib 10 mg/kg oral, no cotreatment): 0.003; PCI-45227 AUC(0-last) [5, 6]: 6.3 (1.7)^c ng/h/mL; PCI-45227 Cmax [5, 6]: 8.2 (2.1)^c ng/mL; PCI-45227: Parent AUC Ratio ([5]; female OATP1B2(-/-) mice, ibrutinib 10 mg/kg PO, no co-treatment): 0.14; PCI-45227 AUC(0-last) [5, 7]: 304 (12) ng*hr/mL; PCI-45227 Cmax [5, 7]: 157 (9) ng/mL; PCI-45227: Parent AUC Ratio ([5]; female OATP2B1(-/-) mice, ibrutinib 10 mg/kg PO, no co-treatment): 1.1; PCI-45227 AUC(0-last) [5, 8]: 1952 (168)** ng*hr/mL; PCI-45227 Cmax [5, 8]: 745 (115)** ng/mL; PCI-45227: Parent AUC Ratio ([5]; female wild-type C57BL/6 mice, ibrutinib 10 mg/kg PO, no co-treatment): 2.1; PCI-45227 AUC(0-last) [5, 9]: 3007 (236) ng*hr/mL; PCI-45227 Cmax [5, 9]: 1373 (70) ng/mL; PCI-45227: Parent AUC Ratio ([5]; female wild-type DBA mice, ibrutinib 10 mg/kg PO, no co-treatment): 0.12; PCI-45227 AUC(0-last) [5, 10]: 343 (52) ng*hr/mL; PCI-45227 Cmax [5, 10]: 234 (47) ng/mL; PCI-45227: Ibrutinib AUC ratio ([5]; female wild-type FVB mice, ibrutinib 4 mg/kg oral, cotreatment cobicistat 30 mg/kg): 0.05; PCI-45227 AUC(0-last) [5, 11]: 56 (22)^c ng/h/mL; PCI-45227 Cmax [5, 11]: 30.7 (12.1)^c ng/mL; PCI-45227: Ibrutinib AUC ratio ([5]; female wild-type FVB mice, ibrutinib 10 mg/kg oral single dose, cotreatment cobicistat 30 mg/kg): 0.05; PCI-45227 AUC(0-last) [5, 12]: 139 (56)^c ng/h/mL; PCI-45227 Cmax [5, 12]: 45 (14)^c ng/mL; PCI-45227: Ibrutinib AUC ratio ([5]; female wild-type FVB mice, ibrutinib 10 mg/kg oral single dose, cotreatment corn oil): 2.0; PCI-45227 AUC(0-last) [5, 13]: 563 (91)^d ng/h/mL; PCI-45227 Cmax [5, 13]: 219 (61)^b ng/mL; PCI-45227: Ibrutinib AUC ratio ([5]; female wild-type FVB mice, ibrutinib 10 mg/kg oral, cotreatment PEG400): 0.87; PCI-45227 AUC(0-last) [5, 14]: 668 (155) ng/h/mL; PCI-45227 Cmax [5, 14]: 246 (54) ng/mL; PCI-45227: Ibrutinib AUC ratio ([5]; female wild-type FVB mice, ibrutinib 10 mg/kg oral, cotreatment cobicistat 30 mg/kg, steady-state): 0.25; PCI-45227 AUC(0-last) [5, 15]: 560 (73)^b ng/h/mL; PCI-45227 Cmax [5, 15]: 211 (65) ng/mL; PCI-45227: Ibrutinib AUC ratio ([5]; female wild-type FVB mice, ibrutinib 10 mg/kg oral, cotreatment corn oil, steady-state): 2.0; PCI-45227 AUC(0-last) [5, 16]: 917 (128) ng/h/mL; PCI-45227 Cmax [5, 16]: 405 (74) ng/mL; PCI-45227: Ibrutinib AUC ratio ([5]; female wild-type FVB mice, ibrutinib 10 mg/kg oral, cotreatment ketoconazole 50 mg/kg): 0.08; PCI-45227 AUC(0-last) [5, 17]: 682 (250) ng/h/mL; PCI-45227 Cmax [5, 17]: 288 (89) ng/mL; PCI-45227: Ibrutinib AUC ratio ([5]; female wild-type FVB mice, ibrutinib 10 mg/kg oral, no cotreatment): 2.5; PCI-45227 AUC(0-last) [5, 18]: 765 (79) ng/h/mL; PCI-45227 Cmax [5, 18]: 447 (45) ng/mL; PCI-45227: Ibrutinib AUC ratio ([5]; female wild-type FVB mice, ibrutinib 30 mg/kg oral, no cotreatment): 1.9; PCI-45227 AUC(0-last) [5, 19]: 3,281 (154) ng/h/mL; PCI-45227 Cmax [5, 19]: 837 (77) ng/mL; PCI-45227: Parent AUC Ratio ([5]; male OATP2B1(-/-) mice, ibrutinib 10 mg/kg PO, no co-treatment): 1.3; PCI-45227 AUC(0-last) [5, 20]: 2236 (160)*** ng*hr/mL; PCI-45227 Cmax [5, 20]: 850 (96)* ng/mL; PCI-45227: Parent AUC Ratio ([5]; male wild-type C57BL/6 mice, ibrutinib 10 mg/kg PO, no co-treatment): 2.4; PCI-45227 AUC(0-last) [5, 21]: 3338 (239) ng*hr/mL; PCI-45227 Cmax [5, 21]: 1252 (97) ng/mL; PCI-45227: Parent AUC Ratio ([5]; male wild-type FVB mice, ibrutinib 10 mg/kg PO, co-treatment No Vehicle (cobicistat experiment)): 2.8; PCI-45227 AUC(0-last) [5, 22]: 1463 (83) ng*hr/mL; PCI-45227 Cmax [5, 22]: 578 (100) ng/mL; PCI-45227: Parent AUC Ratio ([5]; male wild-type FVB mice, ibrutinib 10 mg/kg PO, co-treatment None (ketoconazole experiment)): 2.5; PCI-45227 AUC(0-last) [5, 23]: 1080 (153) ng*hr/mL; PCI-45227 Cmax [5, 23]: 333 (112) ng/mL; PCI-45227: Parent AUC Ratio ([5]; male wild-type FVB mice, ibrutinib 10 mg/kg PO, co-treatment PEG400): 1.5; PCI-45227 AUC(0-last) [5, 24]: 929 (164) ng*hr/mL; PCI-45227 Cmax [5, 24]: 293 (69) ng/mL; PCI-45227: Parent AUC Ratio ([5]; male wild-type FVB mice, ibrutinib 10 mg/kg PO, co-treatment cobicistat): 0.096; PCI-45227 AUC(0-last) [5, 25]: 417 (60)*** ng*hr/mL; PCI-45227 Cmax [5, 25]: 124 (34)* ng/mL; PCI-45227: Parent AUC Ratio ([5]; male wild-type FVB mice, ibrutinib 10 mg/kg PO, co-treatment corn oil): 1.7; PCI-45227 AUC(0-last) [5, 26]: 1124 (152)^a ng*hr/mL; PCI-45227 Cmax [5, 26]: 308 (70) ng/mL; PCI-45227: Parent AUC Ratio ([5]; male wild-type FVB mice, ibrutinib 10 mg/kg PO, co-treatment ketoconazole): 0.14; PCI-45227 AUC(0-last) [5, 27]: 911 (94) ng*hr/mL; PCI-45227 Cmax [5, 27]: 236 (37) ng/mL; levels of PCI-45227 ([5]; mice lacking OATP2B1 vs wild-type, ibrutinib 10 mg/kg orally, P < 0.05): decreased; levels of PCI-45227 and PCI-45227-to-ibrutinib ratio ([5]; wild-type mice, cobicistat pretreatment): significantly decreased
